Patent US10695334B2, “Heteroaromatic carboxamide derivatives as plasma kallikrein inhibitors” (Boehringer Ingelheim International GmbH, priority 2018, dated 2020)

Target: Human PKK (Homo sapiens (Human), UniProt P03952)
Assay: Inhibition of PKK, endpoint assay (human PKK)
Format: biochemical
Settings: substrate H-Pro-Phe-Arg-AMC, 1 h room temperature
Method: Subsequently, PPACK II (Calbiochem) was added as a stop solution to achieve a final concentration of 1 μM and fluorescence was measured using an Envision Reader (PerkinElmer) with the wavelength excitation setting of 355 nm and the wavelength emission setting of 460 nm.

Human PKK, sequence (P03952 391-638): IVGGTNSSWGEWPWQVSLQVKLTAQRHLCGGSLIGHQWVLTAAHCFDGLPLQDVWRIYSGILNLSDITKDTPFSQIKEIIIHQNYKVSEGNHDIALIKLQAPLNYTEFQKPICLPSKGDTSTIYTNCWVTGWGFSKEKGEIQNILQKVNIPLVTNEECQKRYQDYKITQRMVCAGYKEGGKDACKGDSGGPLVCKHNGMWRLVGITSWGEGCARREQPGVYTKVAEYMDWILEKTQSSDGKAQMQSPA
Human PKK, sequence (P03952 20-390 partner): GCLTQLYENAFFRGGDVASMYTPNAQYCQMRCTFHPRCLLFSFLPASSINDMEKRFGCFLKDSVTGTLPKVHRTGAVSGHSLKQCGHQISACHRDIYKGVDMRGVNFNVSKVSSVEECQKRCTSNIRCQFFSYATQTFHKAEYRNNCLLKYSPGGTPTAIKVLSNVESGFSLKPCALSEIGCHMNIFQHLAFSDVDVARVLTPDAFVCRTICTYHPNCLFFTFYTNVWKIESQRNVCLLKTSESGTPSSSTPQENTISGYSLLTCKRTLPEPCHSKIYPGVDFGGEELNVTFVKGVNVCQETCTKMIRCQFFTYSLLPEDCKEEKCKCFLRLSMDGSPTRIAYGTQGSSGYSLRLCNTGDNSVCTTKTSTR

SMILES	IC50
Cc1nc(N2CC3CC3C2)ccc1Cn1cc(C(=O)N[C@H]2CCc3c(C)n[nH]c32)cn1 (stereo partly drawn) [Example 2, 1-[(6-{3-Azabicyclo[3.1.0]hexan-3-yl}-2-methylpyridin-3-yl)methyl]-N-[(6S)-3-methyl-1H,4H,5H,6H-cyclopenta[c]pyrazol-6-yl]-1H-pyrazole-4-carboxamide]	32 nM
Cc1nc(N2CC3C(C2)C3(F)F)ccc1Cn1cc(C(=O)N[C@@H]2CCc3c(C)n[nH]c32)c(C)n1 (stereo partly drawn) [Example 18, 1-[(6-{6,6-Difluoro-3-azabicyclo[3.1.0]hexan-3-yl}-2-methylpyridin-3-yl)methyl]-3-methyl-3-methyl-N-[(6R)-3-methyl-1H,4H,5H,6H-cyclopenta[c]pyrazol-6-yl]-1H-pyrazole-4-carboxamide]	0.9 nM
Cc1nc(N2CC3(CC3)C2)ncc1Cn1cc(C(=O)N[C@@H]2CCc3c(C)n[nH]c32)c(C)n1 [Example 29, 1-[(2-{5-Azaspiro[2.3]hexan-5-yl}-4-methyl-pyrimidin-5-yl)methyl]-3-methyl-N-[(6R)-3-methyl-1H,4H,5H,6H-cyclpenta[c]pyrazol-6-yl]-1H-pyrazole-4-carboxamide]	7 nM
Cc1nc(N2CC3(CC3)C2)ncc1Cn1cc(C(=O)N[C@@H]2CCc3c(C)n[nH]c32)cn1 [Example 30, 1-[(2-{5-Azaspiro[2.3]hexan-5-yl}-4-methyl-pyrimidin-5-yl)methyl]-N-[(6R)-3-methyl-1H,4H,5H,6H-cyclopenta[c]pyrazol-6-yl]-1H-pyrazole-4-carboxamide]	8 nM
Cc1nc(N2CC3CC3C2)ccc1Cn1cc(C(=O)N[C@@H]2CCc3c(C)n[nH]c32)c(-c2cnn(C)c2)n1 (stereo partly drawn) [Example 32, 1-[(6-{3-Azabicyclo[3.1.0]hexan-3-yl}-2-methyl-pyridin-3-yl)methyl]-1′-methyl-N-[(6R)-3-methyl-1H,4H,5H,6H-cyclopenta[c]pyrazol-6-yl]-1H,1′H-[3,4′-bipyrazole]-4-carboxamide]	2 nM
Cc1nc(N2CCCCC2)ccc1Cn1cc(C(=O)N[C@@H]2CCc3c2n[nH]c3C)cn1 [Example 34, N-[(6R)-3-Methyl-2H,4H,5H,6H-cyclopenta[c]pyrazol-6-yl]-1-{[2-methyl-6-(piperidin-1-yl)pyridin-3-yl]methyl}-1H-pyrazole-4-carboxamide]	11 nM
Cc1nc(N2C[C@@H]3[C@@H](CO)[C@@H]3C2)ccc1Cn1cc(C(=O)N[C@@H]2CCc3c2n[nH]c3C)cn1 [Example 38, 1-({6-[(1R,5S,6R)-6-(Hydroxymethyl)-3-azabicyclo[3.1.0]hexan-3-yl]-2-methylpyridin-3-yl}methyl)-N-[(6R)-3-methyl-2H,4H,5H,6H-cyclopenta[c]pyrazol-6-yl]-1H-pyrazole-4-carboxamide]	26 nM
Cc1nc(N2CC3CC(C2)C3O)ccc1Cn1cc(C(=O)N[C@@H]2CCc3c2n[nH]c3C)cn1 (stereo partly drawn) [Example 39, 1-[(6-{6-Hydroxy-3-azabicyclo[3.1.1]heptan-3-yl]-2-methylpyridin-3-yl)methyl]-N-[(6R)-3-methyl-2H,4H,5H,6H-cyclopenta[c]pyrazol-6-yl]-1H-pyrazole-4-carboxamide]	9 nM
Cc1nc(N2CC(C)(C#N)C2)ccc1Cn1cc(C(=O)N[C@@H]2CCc3c2n[nH]c3C)cn1 [Example 41, 1-{[6-(3-Cyano-3-methylazetidin-1-yl)-2-methylpyridin-3-yl]methyl}-N-[(6R)-3-methyl-2H,4H,5H,6H-cyclopenta[c]pyrazol-6-yl]-1H-pyrazole-4-carboxamide]	13 nM
COC1(C)CN(c2ccc(Cn3cc(C(=O)N[C@@H]4CCc5c4n[nH]c5C)cn3)c(C)n2)C1 [Example 44, 1-{[6-(3-Methoxy-3-methylazetidin-1-yl)-2-methylpyridin-3-yl]methyl}-N-[(6R)-3-methyl-2H,4H,5H,6H-cyclopenta[c]pyrazol-6-yl]-1H-pyrazole-4-carboxamide]	20 nM
Cc1nc(N2CC3CC2C3)ccc1Cn1cc(C(=O)N[C@@H]2CCc3c2n[nH]c3C)cn1 [Example 49, 1-[(6-{2-Azabicyclo[2.1.1]hexan-2-yl}-2-methylpyridin-3-yl)methyl]-N-[(6R)-3-methyl-2H,4H,5H,6H-cyclopenta[c]pyrazol-6-yl]-1H-pyrazole-4-carboxamide]	42 nM
Cc1nc(N2CC3(C2)CC3(F)F)ccc1Cn1cc(C(=O)N[C@@H]2CCc3c2n[nH]c3C)cn1 [Example 51, 1-[(6-{1,1-Difluoro-5-azaspiro[2.3]hexan-5-yl}-2-methylpyridin-3-yl)methyl]-N-[(6R)-3-methyl-2H,4H,5H,6H-cyclopenta[c]pyrazol-6-yl]-1H-pyrazole-4-carboxamide]	25 nM
COC1C2CC1CN(c1ccc(Cn3cc(C(=O)N[C@@H]4CCc5c4n[nH]c5C)cn3)c(C)n1)C2 (stereo partly drawn) [Example 53, 1-[(6-{6-methoxy-3-azabicyclo[3.1.1]heptan-3-yl}-2-methylpyridin-3-yl)methyI]-N-[(6R)-3-methyl-2H,4H,5H,6H-cyclopenta[c]pyrazol-6-yl]-1H-pyrazole-4-carboxamide]	9 nM
Cc1nc(N2CC(CO)C2)ccc1Cn1cc(C(=O)N[C@@H]2CCc3c2n[nH]c3C)cn1 [Example 56, 1-({6-[3-(Hydroxymethyl)azetidin-1-yl]-2-methylpyridin-3-yl}methyl)-N-[(6R)-3-methyl-2H,4H,5H,6H-cyclopenta[c]pyrazol-6-yl]-1H-pyrazole-4-carboxamide]	56 nM
Cc1nc(N2CC(C#N)C2)ccc1Cn1cc(C(=O)N[C@@H]2CCc3c2n[nH]c3C)cn1 [Example 57, 1-{[6-(3-Cyanoazetidin-1-yl)-2-methylpyridin-3-yl]methyl}-N-[(6R)-3-methyl-2H,4H,5H,6H-cyclopenta[c]pyrazol-6-yl]-1H-pyrazole-4-carboxamide]	37 nM

Continued by falling IC50, values first:

IC50	SMILES
137 nM	Cc1nc(N2CC3(CCOC3)C2)ccc1Cn1cc(C(=O)N[C@@H]2CCc3c2n[nH]c3C)cn1 [Example 40, N-[(6R)-3-Methyl-2H,4H,5H,6H-cyclopenta[c]pyrazol-6-yl]-1-[(2-methyl-6-{6-oxa-2-azaspiro[3.4]octan-2-yl]pyridin-3-yl)methyl]-1H-pyrazole-4-carboxamide]
26 nM	Cc1nc(N2CC3CC3C2)ccc1Cn1ncc(C(=O)N[C@@H]2CCc3c(C)n[nH]c32)n1 (stereo partly drawn) [Example 10, 2-[(6-{3-Azabicyclo[3.1.0]hexan-3-yl}-2-methylpyridin-3-yl)methyl]-N-[(6R)-3-methyl-1H,4H,5H,6H-cyclopenta[c]pyrazol-6-yl]-2H-1,2,3-triazole-4-carboxamide]
23 nM	Cc1nc(N2CC3COCC(C3)C2)ccc1Cn1cc(C(=O)N[C@@H]2CCc3c2n[nH]c3C)cn1 [Example 43, N-[(6R)-3-Methyl-2H,4H,5H,6H-cyclopenta[c]pyrazol-6-yl]-1-[(2-methyl-6-{3-oxa-7-azabicyclo[3.3.1]nonan-7-yl]pyridin-3-yl)methyl]-1H-pyrazole-4-carboxamide]
10 nM	COCc1nn(Cc2cnc(N3CC4(CC4)C3)nc2C)cc1C(=O)N[C@@H]1CCc2c(C)n[nH]c21 [Example 31, 1-[(2-{5-Azaspiro[2.3]hexan-5-yl}-4-methyl-pyrimidin-5-yl)methyl]-3-(methoxymethyl)-N-[(6R)-3-methyl-1H,4H,5H,6H-cyclopenta[c]pyrazol-6-yl]-1H-pyrazole-4-carboxamide]
9 nM	Cc1nc(N2CC3C(C2)C3(F)F)ccc1Cn1cc(C(=O)N[C@H]2CCc3c(C)n[nH]c32)cn1 (stereo partly drawn) [Example 4, 1-[(6-{6,6-Difluoro-3-azabicyclo[3.1.0]hexan-3-yl}-2-methylpyridin-3-yl)methyl]-N-[(6S)-3-methyl-1H,4H,5H,6H-cyclopenta[c]pyrazol-6-yl]-1H-pyrazole-4-carboxamide]
8 nM	Cc1nc(N2C[C@@H]3CNC(=O)[C@@H]3C2)ccc1Cn1cc(C(=O)N[C@@H]2CCc3c2n[nH]c3C)cn1 [Example 50, 1-({6-[(3aS,6aS)-4-Oxo-octahydropyrrolo[3,4-c]pyrrol-2-yl]-2-methylpyridin-3-yl}methyl)-N-[(6R)-3-methyl-2H,4H,5H,6H-cyclopenta[c]pyrazol-6-yl]-1H-pyrazole-4-carboxamide]
6 nM	CCC1(C)CN(c2ccc(Cn3cc(C(=O)N[C@@H]4CCc5c4n[nH]c5C)cn3)c(C)n2)C1 [Example 42, 1-{[6-(3-Ethyl-3-methylazetidin-1-yl)-2-methylpyridin-3-yl]methyl}-N-[(6R)-3-methyl-2H,4H,5H,6H-cyclopenta[c]pyrazol-6-yl]-1H-pyrazole-4-carboxamide]
4 nM	COCc1nn(Cc2cnc(N3CC4CC4C3)nc2C)cc1C(=O)N[C@@H]1CCc2c(C)n[nH]c21 (stereo partly drawn) [Example 28, 1-[(2-{3-Azabicyclo[3.1.0]hexan-3-yl}-4-methyl-pyrimidin-5-yl)methyl]-3-(methoxymethyl)-N-[(6R)-3-methyl-1H,4H,5H,6H-cyclopenta[c]pyrazol-6-yl]-1H-pyrazole-4-carboxamide]
3 nM	COCc1nn(Cc2cnc(N3CC4C(C3)C4(F)F)nc2C)cc1C(=O)N[C@@H]1CCc2c(C)n[nH]c21 (stereo partly drawn) [Example 26, 1-[(2-{6,6-Difluoro-3-azabicyclo[3.1.0]hexan-3-yl}-4-methylpyrimidin-5-yl)methyl]-3-(methoxy-methyl)-N-[(6R)-3-methyl-1H,4H,5H,6H-cyclo-penta[c]pyrazol-6-yl]-1H-pyrazole-4-carboxamide]
3 nM	Cc1nc(N2CC3C(C2)C3(F)F)ncc1Cn1cc(C(=O)N[C@@H]2CCc3c(C)n[nH]c32)c(C)n1 (stereo partly drawn) [Example 27, 1-[(2-{6,6-Difluoro-3-azabicyclo[3.1.0]hexan-3-yl}-4-methylpyrimidin-5-yl)methyl]-3-methyl-N-[(6R)-3-methyl-1H,4H,5H,6H-cyclopenta[c]pyrazol-6-yl]-1H-pyrazole-4-carboxamide]
2 nM	Cc1nc(N2CC3(CC3)C2)ccc1Cn1cc(C(=O)N[C@@H]2CCc3c(C)n[nH]c32)c(C)n1 [Example 24, 1-[(6-{5-Azaspiro[2.3]hexan-5-yl}-2-methylpyridin-3-yl)methyl]-3-methyl-N-[(6R)-3-methyl1H,4H,5H,6H-cyclopenta[c]pyrazol-6-yl]-1H-pyrazole-4-carboxamide]
